Assay results from patent US6664253B2, “Neurokinin antagonists” (Boehringer Ingelheim Pharma KG, priority 2000, dated 2003).

Target: T1, NK1-receptor (substance P-receptor) (Homo sapiens, UniProt P25103)
T1 construct: expressed in transfected cells; host or cells: IM-9 human lymphoblastoma cells
Experiment: NK1-receptor affinity, displacement of 125I-labelled substance P on IM-9 cells
Assay type: binding
Conditions: human lymphoblastoma cells (IM-9) with cloned NK1-receptors
Procedure: The receptor affinity to the NK1-receptor (substance P-receptor) is determined on human lymphoblastoma cells (IM-9) with cloned NK1-receptors, by measuring the displacement of ^125I-labelled substance P. The Ki-values thus obtained show the efficacy of the compounds.

T1 sequence (P25103 whole entry): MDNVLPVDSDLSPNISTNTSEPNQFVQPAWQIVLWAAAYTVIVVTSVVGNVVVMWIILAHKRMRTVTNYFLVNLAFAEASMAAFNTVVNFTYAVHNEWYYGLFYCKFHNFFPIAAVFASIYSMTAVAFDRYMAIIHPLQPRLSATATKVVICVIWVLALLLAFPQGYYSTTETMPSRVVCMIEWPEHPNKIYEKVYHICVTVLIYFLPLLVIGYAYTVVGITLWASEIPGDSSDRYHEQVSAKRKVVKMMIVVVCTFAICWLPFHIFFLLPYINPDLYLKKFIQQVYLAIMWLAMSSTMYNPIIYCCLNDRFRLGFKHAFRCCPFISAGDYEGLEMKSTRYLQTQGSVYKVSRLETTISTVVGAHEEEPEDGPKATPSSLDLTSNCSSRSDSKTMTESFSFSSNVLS

**Q.** With `O=C(Nc1ccccc1)NC1CCN(C(C(=O)NCc2cc(C(F)(F)F)cc(C(F)(F)F)c2)c2ccccc2)CC1` (stereo not drawn) [Example B-7, reference compound] as the molecule, how does the Ki read?
**A.** 432 nM

**Q.** `CN(CCc1cc(C(F)(F)F)cc(C(F)(F)F)c1)C(=O)[C@H](c1ccccc1)N1CCC(N2CCCOC2=O)CC1` [Example 2, (S)-N-[2-(3,5-bis-trifluoromethyl-phenyl)-ethyl]-N-methyl-2-[4-(2-oxo-[1.3]oxazinan-3-yl)-piperidin-1-yl]-2-phenyl-acetamide] was tested. Which Ki did it give?
**A.** 1.7 nM

**Q.** `CN(CCc1cc(C(F)(F)F)cc(C(F)(F)F)c1)C(=O)[C@H](c1ccccc1)N1CCC(NC(=O)Nc2ccccc2)CC1` [Example 7] was tested. Which Ki did it give?
**A.** 0.8 nM

**Q.** Which Ki does the source give for `CC1CC(=O)N(C)C(=O)N1C1CCN([C@H](C(=O)N(C)CCc2cc(C(F)(F)F)cc(C(F)(F)F)c2)c2ccccc2)CC1` (stereo partly drawn) [Example 5] here?
**A.** 0.6 nM

**Q.** Which Ki does the source give for `CN(CCc1cc(C(F)(F)F)cc(C(F)(F)F)c1)C(=O)[C@H](c1ccccc1)N1CCC(N2CCNC2=O)CC1` [Example 6] here?
**A.** 3.5 nM

**Q.** How did the Ki turn out when `CN(CCc1cc(C(F)(F)F)cc(C(F)(F)F)c1)C(=O)[C@H](c1ccccc1)N1CCC(N2C(=O)COC2=O)CC1` [Example 3] was run?
**A.** 0.7 nM

**Q.** `CC(=O)N1CCN(C2CCN(C(C(=O)NCc3cc(C(F)(F)F)cc(C(F)(F)F)c3)c3ccccc3)CC2)C1=O` (stereo not drawn) [Example B-6, reference compound] was tested. Which Ki did it give?
**A.** 165 nM

**Q.** `CNC(=O)NC1CCN(C(C(=O)N(C)CCc2cc(C(F)(F)F)cc(C(F)(F)F)c2)c2ccccc2)CC1` (stereo not drawn) [Example 1, N-[2-(3,5-bis-trifluoromethyl-phenyl)-ethyl]-N-methyl-2-[4-(3-methyl-ureido)-piperidin-1-yl]-2-phenyl-acetamide] was tested. Which Ki did it give?
**A.** 0.7 nM

**Q.** For `CN(CCc1cc(C(F)(F)F)cc(C(F)(F)F)c1)C(=O)[C@H](c1ccccc1)N1CCC(N2CCC(=O)N(C)C2=O)CC1` [Example 4], which Ki is on record?
**A.** 0.6 nM
